Source: patent publication US20230041743A1, “1,8-NAPHTHYRIDIN-2-ONE COMPOUNDS FOR THE TREATMENT OF AUTOIMMUNE DISEASE” (Hoffmann-La Roche Inc., priority 2019, published 2023)
pIC50: −log10 of the molar value.

Legend:
human TLR8 = target: T1, human TLR8 (Homo sapiens, UniProt Q9NR97); test: HEK293-Blue-hTLR-8 cells assay (SEAP reporter, R848 stimulation); type: cell-based; details: HEK293-Blue-hTLR8 cells, R848 ligand, 20 hrs incubation; read-out: HEK/hTLR8 IC50
T1 construct: host or cells: HEK293 (HEK-Blue hTLR8)
T1 sequence (Q9NR97 27-1041): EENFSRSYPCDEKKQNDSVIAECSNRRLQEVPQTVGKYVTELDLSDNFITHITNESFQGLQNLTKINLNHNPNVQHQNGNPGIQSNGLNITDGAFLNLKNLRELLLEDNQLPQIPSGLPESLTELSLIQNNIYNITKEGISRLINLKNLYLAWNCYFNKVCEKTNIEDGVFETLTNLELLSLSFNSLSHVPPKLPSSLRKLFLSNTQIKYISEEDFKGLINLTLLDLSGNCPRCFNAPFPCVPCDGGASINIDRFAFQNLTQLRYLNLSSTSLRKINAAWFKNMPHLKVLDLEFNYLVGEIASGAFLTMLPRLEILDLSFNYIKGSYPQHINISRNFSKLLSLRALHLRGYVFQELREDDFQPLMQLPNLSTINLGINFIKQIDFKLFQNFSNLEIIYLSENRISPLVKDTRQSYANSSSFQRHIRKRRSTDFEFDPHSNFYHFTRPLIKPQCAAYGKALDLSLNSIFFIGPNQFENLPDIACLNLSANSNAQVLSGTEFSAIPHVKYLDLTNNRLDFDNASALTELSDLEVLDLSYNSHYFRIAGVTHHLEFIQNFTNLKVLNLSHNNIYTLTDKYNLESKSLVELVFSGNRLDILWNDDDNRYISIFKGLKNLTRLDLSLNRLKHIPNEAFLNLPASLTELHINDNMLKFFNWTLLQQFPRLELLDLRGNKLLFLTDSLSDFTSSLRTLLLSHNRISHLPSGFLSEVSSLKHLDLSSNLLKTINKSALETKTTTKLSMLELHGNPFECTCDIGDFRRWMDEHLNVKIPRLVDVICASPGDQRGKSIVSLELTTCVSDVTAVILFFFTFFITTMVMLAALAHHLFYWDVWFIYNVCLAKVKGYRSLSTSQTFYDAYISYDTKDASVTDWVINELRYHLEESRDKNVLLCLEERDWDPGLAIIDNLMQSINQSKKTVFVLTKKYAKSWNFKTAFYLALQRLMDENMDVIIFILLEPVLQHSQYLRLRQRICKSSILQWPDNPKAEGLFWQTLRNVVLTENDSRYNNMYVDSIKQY
Excerpt: HEK293-Blue-hTLR-8 Cells Assay:
A stable HEK293-Blue-hTLR-8 cell line was purchased from InvivoGen (Cat. #: hkb-htlr8, San Diego, Calif., USA). These cells were originally designed for studying the stimulation of human TLR8 by monitoring the activation of NF-κB. A SEAP (secreted embryonic alkaline phosphatase) reporter gene was placed under the control of the IFN-β minimal promoter fused to five NF-κB and AP-1-binding sites. The SEAP was induced by activating NF-κB and AP-1 via stimulating HEK-Blue hTLR8 cells with TLR8 ligands. Therefore the reporter expression was declined by TLR8 antagonist under the stimulation of a ligand, such as R848, for incubation of 20 hrs. The cell culture supernatant SEAP reporter activity was determined using QUANTI-Blue™ kit (Cat. #: rep-qb1, Invivogen, San Diego, Ca, USA) at a wavelength of 640 nm, a detection medium that turns purple or blue in the presence of alkaline phosphatase.
HEK293-Blue-hTLR8 cells were incubated at a density of 250,000-450,000 cells/mL in a volume of 170 μL in a 96-well plate in Dulbecco's Modified Eagle's medium (DMEM) containing 4.5 g/L glucose, 50 U/mL penicillin, […], […], 2 mM L-glutamine, 10% (v/v) heat-inactivated fetal bovine serum with addition of 20 μL test compound in a serial dilution in the presence of final DMSO at 1% and 10 μL of 60 uM R848 in above DMEM, perform incubation under 37° C. in a CO2 incubator for 20 hrs. Then 20 μL of the supernatant from each well was incubated with 180 μL Quanti-blue substrate solution at 37° C. for 2 hrs and the absorbance was read at 620-655 nm using a spectrophotometer. The signaling pathway that TLR8 activation leads to downstream NF-κB activation has been widely accepted, and therefore similar reporter assay was modified for evaluating TLR8 antagonist.

[1] = Human microsomal stability assay; type: in vitro ADME; details: human liver microsomes, 1 μM test compound, 0.5 mg/mL protein, 37° C.; low <7.0, medium 7.0-16.2, high 16.2-23.2
Experimental: Human Microsomal Stability Assay
Human liver microsomes (Cat. NO.: 452117, Corning, USA) were preincubated with test compound for 10 minutes at 37° C. in 100 mM potassium phosphate buffer, pH 7.4. The reactions were initiated by adding NADPH regenerating system. The final incubation mixtures contained 1 μM test compound, 0.5 mg/mL liver microsomal protein, 1 mM MgCl2, 1 mM NADP, 1 unit/mL isocitric dehydrogenase and 6 mM isocitric acid in 100 mM potassium phosphate buffer, pH 7.4. After incubation times of 0, 3, 6, 9, 15 and 30 minutes at 37° C., 300 μL of cold ACN (including internal standard) was added to 100 μL incubation mixture to terminate the reaction. Following precipitation and centrifugation, 100 uL supernatant will be taken out and added 300 uL water.
The amount of compound remaining in the samples was determined by LC-MS/MS. Controls of no NADPH regenerating system at zero and 30 minutes were also prepared and analyzed. The results were categorized as: low (<7.0 mL/min/kg), medium (7.0-16.2 mL/min/kg) and high (16.2-23.2 mL/min/kg).

## C[C@@H]1CN(c2cc(=O)n(C)c3ncccc23)C[C@@H]2c3ccc(N4CC(C)(N)C4)cc3CN12 [Example 1, 4-[(4R,10bS)-8-(3-amino-3-methyl-azetidin-1-yl)-4-methyl-3,4,6,10b-tetrahydro-1H-pyrazino[2,1-a]isoindol-2-yl]-1-methyl-1,8-naphthyridin-2-one]
Human TLR8
  pIC50: 8.54

## C[C@@H]1CN(c2cc(=O)n(C)c3ncccc23)C[C@@H]2c3ccc(N4CC5(CN(C)C5)C4)cc3CN12 [Example 2, 4-[(4R,10bS)-4-methyl-8-(6-methyl-2,6-diazaspiro[3.3]heptan-2-yl)-3,4,6,10b-tetrahydro-1H-pyrazino[2,1-a]isoindol-2-yl]-1-methyl-1,8-naphthyridin-2-one]
[1]
  CL (h): 9.5 mL/min/kg
Human TLR8
  pIC50: 8.77

## C[C@@H]1CN(c2cc(=O)n(C)c3ncccc23)C[C@@H]2c3ccc(N4CC5(CNCCO5)C4)cc3CN12 [Example 3, 4-[(4R,10bS)-4-methyl-8-(5-oxa-2,8-diazaspiro[3.5]nonan-2-yl)-3,4,6,10b-tetrahydro-1H-pyrazino[2,1-a]isoindol-2-yl]-1-methyl-1,8-naphthyridin-2-one]
Human TLR8
  pIC50: 8.59

## C[C@@H]1CN(c2cc(=O)n(C)c3ncccc23)C[C@@H]2c3ccc(N4CC[C@@](C)(N)C4)cc3CN12 [Example 4, 4-[(4R,10bS)-8-[(3R)-3-amino-3-methyl-pyrrolidin-1-yl]-4-methyl-3,4,6,10b-tetrahydro-1H-pyrazino[2,1-a]isoindol-2-yl]-1-methyl-1,8-naphthyridin-2-one]
[1]
  CL (h): 6.3 mL/min/kg
Human TLR8
  pIC50: 8.54

## CO[C@@H]1CN(c2ccc3c(c2)CN2[C@H](C)CN(c4cc(=O)n(C)c5ncccc45)C[C@H]32)C[C@H]1N [Example 5, 4-[(4R,10bS)-8-[(3R,4R)-3-amino-4-methoxy-pyrrolidin-1-yl]-4-methyl-3,4,6,10b-tetrahydro-1H-pyrazino[2,1-a]isoindol-2-yl]-1-methyl-1,8-naphthyridin-2-one]
[1]
  CL (h): 7.8 mL/min/kg
Human TLR8
  pIC50: 7.94

## C[C@@H]1CN(c2cc(=O)n(C)c3ncccc23)C[C@@H]2c3ccc(N4C[C@H]5NCCO[C@@H]5C4)cc3CN12 [Example 6, 4-[(4R,10bS)-8-[(4aR,7aR)-3,4,4a,5,7,7a-hexahydro-2H-pyrrolo[3,4-b][1,4]oxazin-6-yl]-4-methyl-3,4,6,10b-tetrahydro-1H-pyrazino[2,1-a]isoindol-2-yl]-1-methyl-1,8-naphthyridin-2-one]
Human TLR8
  pIC50: 8.31

## C[C@@H]1CN(c2cc(=O)n(C)c3ncccc23)C[C@@H]2c3ccc(N4C[C@@H](N)[C@@H](F)C4)cc3CN12 [Example 7, 4-[(4R,10bS)-8-[(3R,4S)-3-amino-4-fluoro-pyrrolidin-1-yl]-4-methyl-3,4,6,10b-tetrahydro-1H-pyrazino[2,1-a]isoindol-2-yl]-1-methyl-1,8-naphthyridin-2-one]
[1]
  CL (h): 9.4 mL/min/kg
Human TLR8
  pIC50: 8.23

## CO[C@H]1CN(c2ccc3c(c2)CN2[C@H](C)CN(c4cc(=O)n(C)c5ncccc45)C[C@H]32)CC[C@@H]1N [Example 8, 4-[(4R,10bS)-8-[(3S,4S)-4-amino-3-methoxy-1-piperidyl]-4-methyl-3,4,6,10b-tetrahydro-1H-pyrazino[2,1-a]isoindol-2-yl]-1-methyl-1,8-naphthyridin-2-one]
Human TLR8
  pIC50: 8.14

## CO[C@H]1CCN(c2ccc3c(c2)CN2[C@H](C)CN(c4cc(=O)n(C)c5ncccc45)C[C@H]32)C[C@@H]1N [Example 9, 4-[(4R,10bS)-8-[(3S,4S)-3-amino-4-methoxy-1-piperidyl]-4-methyl-3,4,6,10b-tetrahydro-1H-pyrazino[2,1-a]isoindol-2-yl]-1-methyl-1,8-naphthyridin-2-one]
[1]
  CL (h): 8.8 mL/min/kg
Human TLR8
  pIC50: 8.82

## COC[C@@H]1CNCCN1c1ccc2c(c1)CN1[C@H](C)CN(c3cc(=O)n(C)c4ncccc34)C[C@H]21 [Example 10, 4-[(4R,10bS)-8-[(2S)-2-(methoxymethyl)piperazin-1-yl]-4-methyl-3,4,6,10b-tetrahydro-1H-pyrazino[2,1-a]isoindol-2-yl]-1-methyl-1,8-naphthyridin-2-one]
Human TLR8
  pIC50: 8.40

## C[C@@H]1CN(c2cc(=O)n(C)c3ncccc23)C[C@@H]2c3ccc(N4CCOC5(CNC5)C4)cc3CN12 [Example 11, 4-[(4R,10bS)-4-methyl-8-(5-oxa-2,8-diazaspiro[3.5]nonan-8-yl)-3,4,6,10b-tetrahydro-1H-pyrazino[2,1-a]isoindol-2-yl]-1-methyl-1,8-naphthyridin-2-one]
[1]
  CL (h): 6.9 mL/min/kg
Human TLR8
  pIC50: 7.62

## C[C@@H]1CN(c2ccc3c(c2)CN2[C@H](C)CN(c4cc(=O)n(C)c5ncccc45)C[C@H]32)CCN1 [Example 14, 4-[(4R,10bS)-4-methyl-8-[(3R)-3-methylpiperazin-1-yl]-3,4,6,10b-tetrahydro-1H-pyrazino[2,1-a]isoindol-2-yl]-1-methyl-1,8-naphthyridin-2-one]
Human TLR8
  pIC50: 9.00

## C[C@@H]1CNCCN1c1ccc2c(c1)CN1[C@H](C)CN(c3cc(=O)n(C)c4ncccc34)C[C@H]21 [Example 17, 4-[(4R,10bS)-4-methyl-8-[(2R)-2-methylpiperazin-1-yl]-3,4,6,10b-tetrahydro-1H-pyrazino[2,1-a]isoindol-2-yl]-1-methyl-1,8-naphthyridin-2-one]
Human TLR8
  pIC50: > 9.52

## C[C@@H]1CN(c2cc(=O)n(C)c3ncccc23)C[C@@H]2c3ccc(N4CCOC[C@H](N)C4)cc3CN12 [Example 22, 4-[(4R,10bS)-8-[(6R)-6-amino-1,4-oxazepan-4-yl]-4-methyl-3,4,6,10b-tetrahydro-1H-pyrazino[2,1-a]isoindol-2-yl]-1-methyl-1,8-naphthyridin-2-one]
Human TLR8
  pIC50: 8.31

## C[C@@H]1CN(c2cc(=O)n(C)c3ncccc23)C[C@@H]2c3ccc([C@H]4CC[C@@H](N5CCOCC5)CC4)cc3CN12 [Example 27B, 4-[(4R,10bS)-4-methyl-8-(cis-4-morpholinocyclohexyl)-3,4,6,10b-tetrahydro-1H-pyrazino[2,1-a]isoindol-2-yl]-1-methyl-1,8-naphthyridin-2-one]
Human TLR8
  pIC50: 8.00

## C[C@@H]1CN(c2cc(=O)n(C)c3ncccc23)C[C@@H]2c3ccc([C@@H]4C[C@H]5COC[C@@H](C4)N5)cc3CN12 [Example 28B, 4-[(4R,10bS)-4-methyl-8-(exo-3-oxa-9-azabicyclo[3.3.1]nonan-7-yl)-3,4,6,10b-tetrahydro-1H-pyrazino[2,1-a]isoindol-2-yl]-1-methyl-1,8-naphthyridin-2-one]
Human TLR8
  pIC50: 8.36
